Source: patent US20250268894A1, “MACROCYCLE COMPOUNDS FOR THE TREATMENT OF CANCER” (Hoffmann-La Roche Inc., priority 2022, published 2025)
pIC50: −log10 of the molar value.

Legend:
[1] = test system: phosphorylation of ERK, KRAS G12D in AGS cells; experiment: pERK inhibition assay, KRAS G12D in AGS cells; format: cell-based, human; settings: Homo sapiens, 4 hours
Description: (§1) This assay is to measure the ability of test compounds in inhibiting the phosphorylation of ERK, the downstream signaling of KRAS G12C in NCI-H358 cells, KRAS G12D in AGS cells, and KRAS G12V in SW620. NCI-H358 (ATCC-CRL5807) cells, AGS (ATCC-CRL-1739) cells, SW620 (ATCC-CCL-227) cells were all grown and maintained using RPMI-1640 medium (Thermo Fisher Scientific) with 10% fetal bovine serum and 1% penicillin/streptomycin. On the day prior to compound addition, cells were plated in tissue culture-treated 96 well plates (Corning-3699) at a density of 30,000 cell/well, 20,000 cell/well, 30,000 cell/well for NCI-H358, AGS and SW620 respectively, and allowed for attachment overnight. Diluted compounds were then added in a final concentration of 0.5% DMSO. After 4 hours of incubation, the medium was removed, 100 μL of 4% formaldehyde was added, and the assay plates were incubated at room temperature for 20 minutes. The plates were then washed once with phosphate buffered saline (PBS), and permeabilized with 100 μL of chilled methanol for 10 minutes. Non-specific antibody binding to the plates was blocked using 50 μL 1X BSA blocking buffer (Thermo-37520, 10-fold dilution by Phosphate-Buffered Saline Tween (PBST) for at least 1 hour at room temperature.
(§2) The amount of phosphor-ERK was determined using an antibody specific for phosphorylated form of ERK. Primary antibody (PERK, CST-4370, Cell Signaling Technology) was diluted 1:300 in blocking buffer, with 50 μL aliquoted to each well, and incubated overnight at 4° C. Cells was washed five times for 5 minutes with PBST. Secondary antibody (HRP-linked anti-rabbit IgG, CST-7074, Cell Signaling Technology) was diluted 1:1000 in blocking buffer, and 50 μL was added to each well and incubated 1-2 hrs at room temperature. Cells was washed […] for 5 minutes with PBST, 100 μL TMB ELISA substrate (abcam-ab171523) were added and gently shake for 20 minutes. 50 μL stop solution (abcam-ab171529) were added, and then read the signal (OD450) by EnVision.
(§3) IC50 was determined by fitting a 4-parameter sigmoidal concentration response model.

[2] = test system: NCI-H358 cells (KRAS G12C); experiment: Cell viability assay (Cell Counting Kit-8), KRAS G12C; format: cell-based; settings: Homo sapiens, NCI-H358, 72 hrs
Description: (§4) The purpose of this cellular assay was to determine the effects of test compounds on the proliferation of human cancer cell lines NCI-H358 (ATCC-CRL5807) cells, AGS (ATCC-CRL-1739) cells, SW620 (ATCC-CCL-227) over a 3-day treatment period by quantifying the amount of NADPH present at endpoint using Cell Counting Kit-8.
(§5) Cells were seeded at 5,000 cells/well (NCI-H358), 2,000 cells/well (AGS)2,000 cells/well (SW620) in 96-well assay plates (Corning-3699) and incubated overnight. On the day of the assay, diluted compounds were then added in a final concentration of 0.5% DMSO. After 72 hrs incubation, a tenth of the volume of cell counting kit 8 (Dnjindo-CK04) was added into each well. Read the signal (OD450 minus OD650) using EnVision after 2 hrs incubation. IC50 was determined by fitting a 4-parameter sigmoidal concentration response model.

SW620 cells (KRAS G12V) = experiment: Cell viability assay (Cell Counting Kit-8), KRAS G12V; format: cell-based; settings: Homo sapiens, SW-620, SW620, 72 hrs
Description: as §4, §5

KRAS G12V-BRAF complex = KRAS G12V-BRAF complex (Homo sapiens (Human), UniProt P01116+P62937, G12V); experiment: KRAS-BRAF with CYPA (500 nM) interaction assay (TR-FRET), G12V; format: biochemical
Chain of KRAS G12V-BRAF complex (P01116-2 other isoform, or with tags, fused parts or gaps G12V): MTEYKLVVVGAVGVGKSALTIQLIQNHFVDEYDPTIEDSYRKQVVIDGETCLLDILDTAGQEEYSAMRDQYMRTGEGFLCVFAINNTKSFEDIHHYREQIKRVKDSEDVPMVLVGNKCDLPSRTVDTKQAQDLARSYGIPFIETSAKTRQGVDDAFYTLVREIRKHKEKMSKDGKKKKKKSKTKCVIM
Chain of KRAS G12V-BRAF complex (P62937 whole entry): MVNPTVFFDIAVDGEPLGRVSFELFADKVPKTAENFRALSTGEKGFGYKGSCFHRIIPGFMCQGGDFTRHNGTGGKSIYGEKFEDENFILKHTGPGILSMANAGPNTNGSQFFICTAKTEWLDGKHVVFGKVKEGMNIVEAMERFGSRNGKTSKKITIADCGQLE
Description: (§6) Kras-BRAF with CYPA (500 nM) Interaction Assay In this example, TR-FRET was also used to measure the compound or compound-CYPA dependent disruption of the KRAS G12C-BRAF complex. This protocol was also used to measure disruption of KRAS G12D or KRAS G12V binding to BRAF by a compound of the invention, respectively. […] Compound was present in plate wells as a 16-point 3-fold dilution series starting at a final concentration of 10 μM and incubated for 3 hours. […] TR-FRET signal was read on a […] microplate reader (Ex320 nm, Em 665/615 nm). Compounds that facilitate disruption of the KRAS-BRAF complex were identified as those eliciting a decrease in the TR-FRET ratio relative to DMSO control wells.

[3] = test system: phosphorylation of ERK, KRAS G12C in NCI-H358 cells; experiment: pERK inhibition assay, KRAS G12C in NCI-H358 cells; format: cell-based, human; settings: Homo sapiens, NCI-H358, 4 hours
Description: as §1, §2, §3

KRAS G12D-BRAF complex = KRAS G12D-BRAF complex (Homo sapiens (Human), UniProt P01116+P62937, G12D); experiment: KRAS-BRAF with CYPA (500 nM) interaction assay (TR-FRET), G12D; format: biochemical
Chain of KRAS G12D-BRAF complex (P01116-2 other isoform, or with tags, fused parts or gaps G12D): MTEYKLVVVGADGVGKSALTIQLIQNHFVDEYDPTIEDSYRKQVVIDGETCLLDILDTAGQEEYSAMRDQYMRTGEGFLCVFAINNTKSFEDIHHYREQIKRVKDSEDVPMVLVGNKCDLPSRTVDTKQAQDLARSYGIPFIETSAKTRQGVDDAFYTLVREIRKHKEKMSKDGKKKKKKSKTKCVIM
Chain of KRAS G12D-BRAF complex (P62937 whole entry): as the sequence (P62937 whole entry) above
Description: as §6

KRAS G12C-BRAF complex = KRAS G12C-BRAF complex (Homo sapiens (Human), UniProt P01116+P62937, G12C); experiment: KRAS-BRAF with CYPA (500 nM) interaction assay (TR-FRET), G12C; format: biochemical
Chain of KRAS G12C-BRAF complex (P01116-2 other isoform, or with tags, fused parts or gaps G12C): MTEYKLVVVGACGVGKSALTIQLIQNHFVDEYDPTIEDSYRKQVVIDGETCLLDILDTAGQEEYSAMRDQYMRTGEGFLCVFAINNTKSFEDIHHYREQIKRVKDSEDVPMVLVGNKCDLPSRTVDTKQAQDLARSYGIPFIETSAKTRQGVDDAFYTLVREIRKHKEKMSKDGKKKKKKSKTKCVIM
Chain of KRAS G12C-BRAF complex (P62937 whole entry): as the sequence (P62937 whole entry) above
Description: as §6

[4] = test system: phosphorylation of ERK, KRAS G12V in SW620 cells; experiment: pERK inhibition assay, KRAS G12V in SW620; format: cell-based, human; settings: Homo sapiens, SW-620, SW620, 4 hours
Description: as §1, §2, §3

AGS cells (KRAS G12D) = experiment: Cell viability assay (Cell Counting Kit-8), KRAS G12D; format: cell-based; settings: Homo sapiens, 72 hrs
Description: as §4, §5

| Structure (SMILES) | pIC50 [1] | pIC50 [2] | pIC50 (SW620 cells (KRAS G12V)) | pIC50 (KRAS G12V-BRAF complex) | pIC50 [3] | pIC50 (KRAS G12D-BRAF complex) | pIC50 (KRAS G12C-BRAF complex) | pIC50 [4] | pIC50 (AGS cells (KRAS G12D)) |
| --- | --- | --- | --- | --- | --- | --- | --- | --- | --- |
| CCn1c(-c2cc(N3CCOCC3)cnc2[C@H](C)OC)c2c3cc(c(F)cc31)-c1csc(n1)C[C@H](NC(=O)[C@H](C(C)C)N(C)C(=O)N1CC(C(F)(F)F)C1)C(=O)N1CCC[C@H](N1)C(=O)OCC(C)(C)C2 (atropisomer, axis not shown; (M)) [Example 14, N-[(1S)-1-[[(7S,13S)-21-ethyl-24-fluoro-(20M)-20-[2-[(1S)-1-methoxyethyl]-5-morpholino-3-pyridyl]-17,17-dimethyl-8,14-dioxo-15-oxa-4-thia-9,21,27,28-tetrazapentacyclo[17.5.2.1^2,5.1^9,13.0^22,26]octacosa-1 (25),2,5 (28),19,22 (26),23-hexaen-7-yl]carbamoyl]-2-methyl-propyl]-N-methyl-3-(trifluoromethyl) azetidine-1-carboxamide] | 7.49 | 7.00 | 7.14 | < 5.00 | 7.55 | < 5.00 | < 5.00 | 7.92 | < 5.00 |
| CO[C@@H](C)c1ncc(N2CCN(CC(F)(F)F)CC2)cc1-c1c2c3cc(c(F)cc3n1CC(F)(F)F)-c1csc(n1)C[C@H](NC(=O)[C@H](C(C)C)N(C)C(=O)N1CC(N(C)C)C1)C(=O)N1CCC[C@H](N1)C(=O)OCC(C)(C)C2 (atropisomer, axis not shown; (M)) [Example 12, 3-(dimethylamino)-N-[(1S)-1-[[(7S,13S)-24-fluoro-(20M)-20-[2-[(1S)-1-methoxyethyl]-5-[4-(2,2,2-trifluoroethyl)piperazin-1-yl]-3-pyridyl]-17,17-dimethyl-8,14-dioxo-21-(2,2,2-trifluoroethyl)-15-oxa-4-thia-9,21,27,28-tetrazapentacyclo[17.5.2.1^2,5.1^9,13.0^22,26]octacosa-1 (25),2,5 (28),19,22 (26),23-hexaen-7-yl]carbamoyl]-2-methyl-propyl]-N-methyl-azetidine-1-carboxamide] | 7.82 | 8.05 | 8.15 | 7.07 | 8.22 | 6.85 | 7.54 | 8.40 | 7.42 |
